Test results from paper PMC10713593, “Staphylococcus aureus functional amyloids catalyze degradation of β-lactam antibiotics” (Nature Communications, 2023).
Where “and” joins values, the source holds several entries; their conditions need not be identical. Equal values may be shown once.

Tests used:
[1] = assay type: biochemical; settings: Aβ42 fibrils 100 µM, nitrocefin 170 µM, A480, two hours (Fig. S2)
[2] = test system: Staphylococcus aureus (ATCC 25923); experiment: Staphylococcus aureus sensitivity to nitrocefin in the presence of PSMα (growth curves, OD 600 nm); assay type: cell-based; settings: nitrocefin 100 µg/mL, LB, 37 °C, 16 h
Method: The antimicrobial activity of nitrocefin against Staphylococcus aureus (ATCC 25923) was examined in the presence or absence of pre-assembled PSMα3, while monitoring the growth of the bacterial strain. PSMα3 fibrils were prepared as described above, in aqueous solution, in concentration of 100 µM. The bacterial growth was monitored in bacterial growth curves prepared as following: 3 µL of S. aureus microbial culture (OD = 1) were added to 100 µL LB media (Difco Luria-Bertani medium, BD, France). The bacterial solution was supplemented with 100 µM of the PSMα3 solution (dissolved and preincubated in DIW) or equivalent volume of DIW as a control. Then, aqueous solution of nitrocefin was added to each sample, generating final concentration of 100 µg/mL. As control, the growth curve of S. aureus was examined without any additives. All the samples were incubated while shaking in sterile clear 96-well plates at 37 °C for 16 h, and the absorbance at 600 nm was monitored every 20 min steps by microplate reader (Varioskan Flash, Thermo Scientific, Waltham, MA). Measurements were performed at three biological replicates, each with five technical replicates. The values were plotted in the graph as mean ± SD of representative results.
Figure S15. The effects of PSMα1 and PSMα4 upon nitrocefin in physiological scenarios. […]

[3] = assay type: physicochemical; settings: PSMα3 preformed fibrils 400 µM, titration pH 3 to 10 with NaOH 0.05M (Fig. S10)
[4] = Nitrocefin hydrolysis kinetics (absorbance of degraded nitrocefin at 480 nm; initial rates V0, Michaelis-Menten fit); assay type: biochemical; set-up: Initial nitrocefin-degradation reaction rate, V0: unit not given here; settings: for Initial nitrocefin-degradation reaction rate, V0: Hepes pH 7.4, average of the six runs
How it was run: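 Nitrocefin (up to 360 µM, diluted on ice in 50 mM Hepes pH 7.4) mixed with pre-incubated PSMα (510 µM solution); A480 read every 20 s for 2 h at 20 °C. V0 from first 15 min slopes, blank self-hydrolysis subtracted, fitted to Michaelis–Menten by non-linear regression; mean ± SEM, ≥5 repeats.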

[5] = test system: T1, a2-PEG17K; experiment: Source-data fits for PSMα variants (170 µM): initial rates of nitrocefin hydrolysis (up to 240 µM) by absorbance at 480 nm in 50 mM Hepes pH 7.4 at 20 °C.; assay type: biochemical; settings: read-out: Km [uM] (AVG, source data sheet 2c,d_titration of nitrocefin)
T1 construct: synthetic peptide, pre-assembled; modification not described beyond the name
Method: Nitrocefin, a β-lactam widely used as a surrogate substrate of Penicillin in β-lactamase activity assay, was used as a substrate. NC degradation was monitored for 2 h. Nitrocefin stock solution was dissolved in acetonitrile (20 mM) and then diluted with Hepes buffer (50 mM, pH 7.4) to nitrocefin concentration of 360 µM (further dilutions to lower concentrations were made with the 360 µM NC stock). All nitrocefin samples were kept on ice in cold conditions and any further dilution or mixing was performed in ice-cold conditions to avoid self-hydrolysis background reaction. […] Immediately after mixing the samples, the plate was transferred to 20̊ °C pre-cooled plate reader (Multiskan GO, Thermo Scientific, Waltham, MA) and shaken slowly for 10 s. Then, the absorbance of degraded nitrocefin was measured for 2 h at interval of 20 s at λ = 480 nm. Initial production rates (V0) were calculated by slope of the initial linear range of degraded-nitrocefin production at the first 15 min. […] The initial rate calculations were performed while also subtracting the self-degradation of the substrate, to ensure that this product absorbance is a result of PSMα presence.
The initial rates of degraded-nitrocefin production were calculated from the slopes of the first 15 min of measurement as reported above. […]

With “β-amyloid fibrils: Amyloid-β sequence 1-42 fibrils, control cross-β amyloid” the “β-lactam (nitrocefin) degradation by control amyloid” value [1] was “very low β-lactam degradation”.
In the case of `O=C(Cc1cccs1)N[C@@H]1C(=O)N2C(C(=O)O)=C(C=Cc3ccc([N+](=O)[O-])cc3[N+](=O)[O-])CS[C@H]12` [nitrocefin, 3-(2,4-Dinitrostyryl)-(6R, 7R)−7-(2-thienylacetamido)-ceph-3-em-4-carboxylic Acid], the “effect of nitrocefin on bacterial growth” value [2] is reported as “significantly reduced bacterial proliferation”.
With `CSCC[C@H](N)C(=O)N[C@@H](CCC(=O)O)C(=O)N[C@@H](Cc1ccccc1)C(=O)N[C@H](C(=O)N[C@@H](C)C(=O)N[C@@H](CCCCN)C(=O)N[C@@H](CC(C)C)C(=O)N[C@@H](Cc1ccccc1)C(=O)N[C@@H](CCCCN)C(=O)N[C@@H](Cc1ccccc1)C(=O)N[C@@H](Cc1ccccc1)C(=O)N[C@@H](CCCCN)C(=O)N[C@@H](CC(=O)O)C(=O)N[C@@H](CC(C)C)C(=O)N[C@@H](CC(C)C)C(=O)NCC(=O)N[C@@H](CCCCN)C(=O)N[C@@H](Cc1ccccc1)C(=O)N[C@@H](CC(C)C)C(=O)NCC(=O)N[C@@H](CC(N)=O)C(=O)N[C@@H](CC(N)=O)C(=O)O)C(C)C` [PSMα3] the “pKa of the amines (first value)” value [3] was 7.8, the “pKa of the amines (second value)” value [3] was 8.1 and the ATR-FTIR amide-I peak/maximum was 1660 cm⁻¹ and 1650 cm⁻¹. For the same compound, the “Initial nitrocefin-degradation reaction rate, V0” value ([4]; PSMα 4.01424 uM, nitrocefin 60 µM) was 0.4242, the “Initial nitrocefin-degradation reaction rate, V0” value ([4]; PSMα 6.02136 uM, nitrocefin 60 µM) was -0.2476 and the “Initial nitrocefin-degradation reaction rate, V0” value ([4]; PSMα 9.03205 uM, nitrocefin 60 µM) was 0.6132. The “Initial nitrocefin-degradation reaction rate, V0” value ([4]; PSMα 13.5481 uM, nitrocefin 60 µM) was 1.028, the “Initial nitrocefin-degradation reaction rate, V0” value ([4]; PSMα 20.3221 uM, nitrocefin 60 µM) was 0.7515 and the “Initial nitrocefin-degradation reaction rate, V0” value ([4]; PSMα 30.4832 uM, nitrocefin 60 µM) was -1.835. For the same compound, the “Initial nitrocefin-degradation reaction rate, V0” value ([4]; PSMα 45.7247 uM, nitrocefin 60 µM) was 5.684, the “Initial nitrocefin-degradation reaction rate, V0” value ([4]; PSMα 68.5871 uM, nitrocefin 60 µM) was 8.525 and the “Initial nitrocefin-degradation reaction rate, V0” value ([4]; PSMα 102.881 uM, nitrocefin 60 µM) was 29.1642. For the same compound, the “Initial nitrocefin-degradation reaction rate, V0” value ([4]; PSMα 154.321 uM, nitrocefin 60 µM) was 32.1116, the “Initial nitrocefin-degradation reaction rate, V0” value ([4]; PSMα 231.481 uM, nitrocefin 60 µM) was 46.236 and the “Initial nitrocefin-degradation reaction rate, V0” value ([4]; PSMα 347.222 uM, nitrocefin 60 µM) was 69.7594. The “nitrocefin degradation yield (turnover)” value ([4]; nitrocefin 60 µM, PSMα assemblies 350 µM, Hepes 50 mM pH 7.4, 20 °C, A480, monitored 2 h (Fig. 2a)) was 75%, the “initial rate of nitrocefin degradation reaction (V0)” value ([4]; peptide 170 µM, initial nitrocefin 107 µM, Hepes 50 mM pH 7.4, 20 °C, first 15 min (Fig. 3f)) was “around 60 µM/h” and the “time to degrade the entire nitrocefin reservoir” value ([4]; peptide 170 μM, nitrocefin 107 µM, Hepes pH 7.4 (Fig. 3e)) was ~ 40 min.
Compound `O=C(Cc1cccs1)N[C@@H]1C(=O)N2C(C(=O)O)=C(/C=C/c3ccc([N+](=O)[O-])cc3[N+](=O)[O-])CS[C@H]12` [nitrocefin, 3-(2,4-Dinitrostyryl)-(6R,7R)-7-(2-thienylacetamido)-ceph-3-em-4-carboxylic acid] has a Km [5] of 2740 µM.
